In US20200305437A1, “SYNERGISTIC ANTIMICROBIAL COMBINATIONS CONTAINING QUATERNARY AMMONIUM BIOCIDE” (LONZA, LLC, priority 2016, published 2020):

What was measured:
Test in all cases: Minimum inhibitory concentration, microtitre plate doubling dilutions
Assay type in all cases: cell-based
[1] = tested on: Pseudomonas aeruginosa; settings: for MIC versus organism Ps.a: biocide alone, visual growth after 24 hours at 37° C.
Method: (§1) Bacteria were grown to stationary phase (18 h) in nutrient broth (approximately 10^9 organisms per ml). A 0.1% (v/v) inoculum was used to seed fresh medium and 100 μl of this was added to each well of a microtitre plate, except for the first well which contained 200 μl. Using doubling dilutions, the concentration of each antimicrobial was varied in each well along the ordinate axis. The presence or absence of growth was determined by visual inspection after 24 hours incubation at 37° C.

[2] = tested on: Staphylococcus aureus; settings: for MIC versus organism S.a: biocide alone, visual growth after 24 hours at 37° C.
Method: as §1

[3] = tested on: Escherichia coli; settings: for MIC versus organism E.c: biocide alone, visual growth after 24 hours at 37° C.
Method: as §1

Row | Compound | MIC versus organism Ps.a [1] | MIC versus organism S.a [2] | MIC versus organism E.c [3] | MIC ([1]; Pseudomonas aeruginosa, 24 h, read-out: MIC versus organism Ps.a) | MIC ([2]; Staphylococcus aureus, 24 h, read-out: MIC versus organism S.a) | MIC ([3]; Escherichia coli, 24 h, read-out: MIC versus organism E.c)
1 | Didecyl dimethyl ammonium carbonate/bicarbonate [Carboquat HE] | 8 ppm | 1 ppm | 4 ppm | – | – | –
2 | Alkyldimethylbenzylammonium chloride [Barquat 4214] | 32 ppm | 2 ppm | 8 ppm | – | – | –
3 | N,N-Didecyl-N-methyl-poly(oxyethyl)ammonium propionate [Bardap 26] | 16 ppm | 1 ppm | 4 ppm | – | – | –
4 | CCCCCCCCCCCCN(CCCN)CCCN [Lonzabac 12.30, N-3-aminopropyl-N-dodecylpropane-1-3-diamine] | 32 ppm | 8 ppm | 16 ppm | – | – | –
5 | [Na+].[O-][n+]1ccccc1[S-] [Sodium Omadine, Na pyrithione] | 16 ppm | 1 ppm | 500 ppm | – | – | –
6 | Benzyl C12-16 alkyl dimethyl chlorides [Barquat DM-80] | 32 ppm | 2 ppm | 12 ppm | – | – | –
7 | CCCCCCCCCC[N+](C)(C)CCCCCCCCCC.[Cl-] [Bardac 22.70, Didecyldimethyl ammonium chloride] | – | – | – | 8 µg/mL | 1 µg/mL | 4 µg/mL
